Our source for the EC50 values is patent publication US10913727B2, “Modulators of the integrated stress pathway” (Calico Life Sciences LLC, priority 2016, dated 2021).

Structures are written as SMILES.

In this assay the test system is HEK293T cells carrying the ATF4 luciferase reporter. The assay can be described thus: ATF4-Luc assay, in vitro model of Vanishing Cell White Matter Disease (VWMD). Type of assay: cell-based. The following applies: Homo sapiens, HEK-293T, 1 μg/mL tunicamycin, 7 hours, One Glo luminescence. How it is done:
In order to test exemplary compounds of the invention in a cellular context, a stable VWMD cell line was first constructed. The ATF4 reporter was prepared by fusing the human full-length ATF4 5′-UTR (NCBI Accession No. BC022088.2) in front of the firefly luciferase (FLuc) coding sequence lacking the initiator methionine as described in Sidrauski et al (eLife 2013). The construct was used to produce recombinant retroviruses using standard methods and the resulting viral supernatant was used to transduce HEK293T cells, which were then subsequently selected with puromycin to generate a stable cell line.
HEK293T cells carrying the ATF4 luciferase reporter were plated on polylysine coated 384-well plates (Greiner Bio-one) at 30,000 cells per well. Cells were treated the next day with 1 μg/mL tunicamycin and 200 nM of a compound of Formula (I) for 7 hours. Luminescence was measured using One Glo (Promega) as specified by the manufacturer. Cells were maintained in DMEM with L-glutamine supplemented with 10% heat-inactivated FBS (Gibco) and Antibiotic-Antimycotic solution (Gibco).
Table 2 below summarizes the EC50 data obtained using the ATF4-Luc assay for exemplary compounds of the invention.
Regarding `Cc1noc(C(=O)NC23CC(NC(=O)COc4ccc(Cl)c(F)c4)(C2)C3)n1` [Compound 375, N-{3-[2-(4-chloro-3-fluorophenoxy)acetamido]bicyclo[1.1.1]pentan-1-yl}-3-methyl-1,2,4-oxadiazole-5-carboxamide], the EC50 (in general, the concentration needed to bring the measured effect to its halfway point) was 50 to 250 nM. On to `Cn1nc(C(F)F)cc1C(=O)NC12CCC(NC(=O)COc3ccc(Cl)c(F)c3)(CC1)C(O)C2` (stereo not shown) [Compound 437, N-{4-[2-(4-chloro-3-fluorophenoxy)acetamido]-3-hydroxybicyclo[2.2.2]octan-1-yl}-3-(difluoromethyl)-1-methyl-1H-pyrazole-5-carboxamide], for which the EC50 was less than 50 nM. Take `O=C(COc1ccc(Cl)c(F)c1)NC12CC(NC(=O)c3nc4ccccc4s3)(C1)C2` [Compound 907, N-{3-[2-(4-chloro-3-fluorophenoxy)acetamido]bicyclo[1.1.1]pentan-1-yl}-1,3-benzothiazole-2-carboxamide]: the EC50 was in the range of 50 to 250 nM. The same measure for `O=C(COc1ccc(Cl)c(F)c1)NC12CCC(NC(=O)c3ccc(OC(F)(F)F)cn3)(CC1)CC2O` (stereo not shown) [Compound 480, N-{4-[2-(4-chloro-3-fluorophenoxy)acetamido]-3-hydroxybicyclo[2.2.2]octan-1-yl}-5-(trifluoromethoxy)pyridine-2-carboxamide]: less than 50 nM; for `Cc1nc2ccc(C(=O)NC34CC(NC(=O)COc5ccc(Cl)c(F)c5)(C3)C4)cc2nc1C` [Compound 779, N-{3-[2-(4-chloro-3-fluorophenoxy)acetamido]bicyclo[1.1.1]pentan-1-yl}-2,3-dimethylquinoxaline-6-carboxamide]: more than 2000 nM; for `Cn1nc(C(=O)NC23CC(NC(=O)COc4ccc(Cl)c(F)c4)(C2)C3)c2c1CCC2` [Compound 877, N-{3-[2-(4-chloro-3-fluorophenoxy)acetamido]bicyclo[1.1.1]pentan-1-yl}-1-methyl-1,4,5,6-tetrahydrocyclopenta[c]pyrazole-3-carboxamide]: more than 2000 nM.

Consider `Cc1ccc2nc(C(=O)NC34CC(NC(=O)COc5ccc(Cl)c(F)c5)(C3)C4)cn2c1` [Compound 787, N-{3-[2-(4-chloro-3-fluorophenoxy)acetamido]bicyclo[1.1.1]pentan-1-yl}-6-methylimidazo[1,2-a]pyridine-2-carboxamide], for which the EC50 was more than 2000 nM. The result for `Cc1cc(C(=O)NC23CCC(NC(=O)COc4ccc(F)c(F)c4)(CC2)C(=O)C3)on1` [Compound 461, N-{4-[2-(3,4-difluorophenoxy)acetamido]-3-oxobicyclo[2.2.2]octan-1-yl}-3-methyl-1,2-oxazole-5-carboxamide] reads 1000 to 2000 nM; that for `O=C(COc1ccc(Cl)cc1)NC12CC(Nc3nc(-c4ccc(Cl)cc4)no3)(C1)C2` [Compound 284, 2-(4-chlorophenoxy)-N-(3-{[3-(4-chlorophenyl)-1,2,4-oxadiazol-5-yl]amino}bicyclo[1.1.1]pentan-1-yl)acetamide], 50 to 250 nM; that for `O=C(COc1ccc(Cl)c(F)c1)NC12CC(Nc3nccn4cccc34)(C1)C2` [Compound 434, 2-(4-chloro-3-fluorophenoxy)-N-{3-[(pyrrolo[1,2-a]pyrazin-1-yl)amino]bicyclo[1.1.1]pentan-1-yl}acetamide], 250 to 1000 nM. For the molecule `Cc1ccncc1C(=O)NC12CC(NC(=O)COc3ccc(Cl)c(Cl)c3)(C1)C2` [Compound 736, N-{3-[2-(3,4-dichlorophenoxy)acetamido]bicyclo[1.1.1]pentan-1-yl}-4-methylpyridine-3-carboxamide], the EC50 was more than 2000 nM. The result for `O=C(COc1ccc(Cl)c(F)c1)NC12CC(NC(=O)c3noc4ccccc34)(C1)C2` [Compound 346, N-{3-[2-(4-chloro-3-fluorophenoxy)acetamido]bicyclo[1.1.1]pentan-1-yl}-1,2-benzoxazole-3-carboxamide] reads 250 to 1000 nM; that for `NC(=O)c1nccnc1C(=O)NC12CC(NC(=O)COc3ccc(Cl)c(F)c3)(C1)C2` [Compound 853, N-2-{3-[2-(4-chloro-3-fluorophenoxy)acetamido]bicyclo[1.1.1]pentan-1-yl}pyrazine-2,3-dicarboxamide], more than 2000 nM.
